Earlier results, collected in patent publication US11197823B2, “Topiramate oral liquid suspension and use thereof” (OWP Pharmaceuticals, Inc., priority 2019, dated 2021).

solubility in organic solvents and alkaline solutions (acetone, dimethyl sulfoxide, ethanol, and alkaline solutions containing sodium hydroxide or sodium phosphate): freely soluble | solubility in water (water, room temperature): approximately 9.8 mg/mL
Compound: CC1(C)O[C@@H]2[C@@H](CO[C@@]3(COS(N)(=O)=O)OC(C)(C)O[C@@H]23)O1 [Topiramate, 2,3:4,5-Di-O-isopropylidene-β-D-fructopyranose sulfamate]
